No end group written: not given here.

These results are taken from patent US7199216B1, “Peptide constructs for treating autoimmune and related diseases” (Cel-Sci Corporation, priority 1999, dated 2007).

Assay [1] in a line: Immunogenicity of TCBL peptides judged by development of antibodies that react to the peptides. To be noted: judged by the lack of developing antibodies that react to these peptides. It counts as in vivo. An excerpt: (§1) The antigenic portion My-1 of these constructs is immunogenic in several strains of mice and in rabbits.
For another assay, the system named is several strains of mice. The assay is described as follows: Immunogenicity in mice. The assay is classed as in vivo.
Source text: as §1

The subject of the next assay is A/J strain of mice. The following applies: injected in the presence of adjuvant; cited from earlier work.
The subject of the next assay is rabbits. The assay is described as follows: Immunogenicity in rabbits. It counts as in vivo.
Source text: as §1

Take “NGQEEKAGVVSTGLI (peptide G) [non-modified TCBL from the beta-2 domain of HLA/MHC class II molecule]”: the immunogenicity result in assay [1] is “only poorly immunogenic”.
Same read-out and setting: the same measure for “Asp Leu Leu Lys Asn Gly Glu Arg (Xaa) Glu Lys Val Glu [m-J]”: “only poorly immunogenic”.
Regarding “Asn Gly Gln Glu Glu (Xaa) Ala Gly Val Val Ser Thr Gly Leu Ile [m-G]”, the immunogenicity result in assay [1] was “only poorly immunogenic”.
As to “DSAFDVLSFTAEEKAGVYK [myocardiogenic peptide derived from murine cardiac myosin heavy chain (amino acids 334–352)]”, the immunogenicity result in the assay on several strains of mice and with rabbits was “immunogenic” throughout. In addition, the induction of myocarditis result with A/J strain of mice is reported as “induce severe myocarditis”.
